{
  "source": "ChEMBL document CHEMBL3872274",
  "about": "“Synthesis and immunological evaluation of a low molecular weight saccharide with TLR-4 agonist activity” (Bioorg Med Chem, 2017)",
  "key": {"[1]": {"biological_target": "T1, Toll-like receptor 4 (Mus musculus) (UniProt Q9QUK6)", "T1 sequence (whole entry)": "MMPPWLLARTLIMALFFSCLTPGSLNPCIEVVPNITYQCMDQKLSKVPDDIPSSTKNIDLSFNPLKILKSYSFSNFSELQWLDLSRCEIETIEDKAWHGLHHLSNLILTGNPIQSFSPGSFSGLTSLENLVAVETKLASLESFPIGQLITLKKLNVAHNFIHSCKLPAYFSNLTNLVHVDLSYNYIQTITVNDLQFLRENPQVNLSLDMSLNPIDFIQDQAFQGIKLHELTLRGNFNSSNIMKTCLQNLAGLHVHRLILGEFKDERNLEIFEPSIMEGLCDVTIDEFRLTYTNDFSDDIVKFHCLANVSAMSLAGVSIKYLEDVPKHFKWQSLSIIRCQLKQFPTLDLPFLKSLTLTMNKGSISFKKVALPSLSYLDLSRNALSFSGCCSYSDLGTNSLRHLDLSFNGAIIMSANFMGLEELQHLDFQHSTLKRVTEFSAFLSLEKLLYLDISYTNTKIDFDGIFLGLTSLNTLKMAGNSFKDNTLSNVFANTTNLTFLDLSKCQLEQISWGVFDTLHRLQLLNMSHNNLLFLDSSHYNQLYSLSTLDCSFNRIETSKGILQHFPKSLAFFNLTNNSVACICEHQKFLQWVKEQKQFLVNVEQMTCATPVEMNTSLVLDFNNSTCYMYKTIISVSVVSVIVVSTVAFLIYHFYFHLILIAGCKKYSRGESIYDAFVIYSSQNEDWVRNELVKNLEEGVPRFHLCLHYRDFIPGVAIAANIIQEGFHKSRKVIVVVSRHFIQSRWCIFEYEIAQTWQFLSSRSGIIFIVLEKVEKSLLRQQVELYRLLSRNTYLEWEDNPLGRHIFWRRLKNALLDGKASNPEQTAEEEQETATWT", "experiment": "Agonist activity at TLR-4 in C57BL/6 mouse peritoneal exudate macrophages assessed as increase in IL-6 production at 1 to 5 ug/ml at 24 hrs post dose by ELISA relative to (Cyclohexyl-2-phthalimido-3,4,6-tri-O-acetyl-beta-D-glucopyranosyl)-2-O-acetyl-3-O-benzoyl-4,6-O-pyruvate-beta-D-galactopyranose"}, "[2]": {"biological_target": "T1, Toll-like receptor 4 (Mus musculus)", "experiment": "Agonist activity at TLR-4 in C57BL/6 mouse peritoneal exudate macrophages assessed as increase in TNF-alpha production at 1 to 5 ug/ml up to 24 hrs post dose by ELISA relative to thiophenyl-2-O-acetyl-3-O-benzoyl-4,6-O-pyruvate-[…]-D-galactopyranose"}, "[3]": {"experiment": "Effect on adaptive immune system in mouse splenocytes assessed as polyclonal activation of B-lymphocytes", "assay_type": "cell-based", "details": "splenocyte"}, "[4]": {"biological_target": "Toll-like receptor 2 (Mus musculus) (UniProt Q9QUN7)", "sequence (Q9QUN7 whole entry)": "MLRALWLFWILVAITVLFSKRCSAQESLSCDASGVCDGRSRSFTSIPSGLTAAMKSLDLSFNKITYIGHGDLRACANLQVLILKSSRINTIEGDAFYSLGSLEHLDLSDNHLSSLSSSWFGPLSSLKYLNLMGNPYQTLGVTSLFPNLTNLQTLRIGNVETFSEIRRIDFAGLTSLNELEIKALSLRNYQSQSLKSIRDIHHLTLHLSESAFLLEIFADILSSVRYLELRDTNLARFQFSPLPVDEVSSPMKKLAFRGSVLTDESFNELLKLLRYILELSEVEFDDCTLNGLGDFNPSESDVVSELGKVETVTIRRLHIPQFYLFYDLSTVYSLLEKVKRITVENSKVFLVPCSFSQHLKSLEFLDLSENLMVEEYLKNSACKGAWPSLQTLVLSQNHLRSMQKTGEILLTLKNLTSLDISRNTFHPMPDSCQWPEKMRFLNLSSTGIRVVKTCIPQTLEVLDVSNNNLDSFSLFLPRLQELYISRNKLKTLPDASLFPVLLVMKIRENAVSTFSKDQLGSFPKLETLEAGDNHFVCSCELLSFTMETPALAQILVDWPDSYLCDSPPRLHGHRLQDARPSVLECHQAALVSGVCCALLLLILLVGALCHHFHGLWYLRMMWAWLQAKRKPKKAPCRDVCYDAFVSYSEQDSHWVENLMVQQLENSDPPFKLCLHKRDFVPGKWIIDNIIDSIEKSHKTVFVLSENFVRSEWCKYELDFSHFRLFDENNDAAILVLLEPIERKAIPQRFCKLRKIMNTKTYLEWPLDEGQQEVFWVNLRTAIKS", "experiment": "Binding affinity to TLR-2 in C57BL/6 mouse peritoneal exudate macrophages assessed as cells binding to PE conjugated anti-TLR-2 monoclonal antibody at 10 ug/ml preincubated for 4 hrs followed by antibody addition by flow cytometry (reference value: 30.8%)"}, "[5]": {"biological_target": "T1, Toll-like receptor 4 (Mus musculus)", "experiment": "Agonist activity at TLR4 in TLR-2 deficient C57BL/6 mouse peritoneal exudate macrophages assessed as induction of IL-6 production at 1 to 5 ug/ml measured after up to 48 hrs by ELISA"}, "[6]": {"biological_target": "T1, Toll-like receptor 4 (Mus musculus)", "experiment": "Binding affinity to TLR-4 in C57BL/6 mouse peritoneal exudate macrophages assessed as decrease in cells binding to PE conjugated anti-TLR-4 monoclonal antibody preincubated for 4 hrs followed by antibody addition by flow cytometry"}, "[7]": {"biological_target": "T1, Toll-like receptor 4 (Mus musculus)", "experiment": "Agonist activity at TLR-4 in mouse RAW264.7 cells assessed as increase in TNF-alpha production at 1 to 5 ug/ml measured within 2 hrs by ELISA", "assay_type": "cell-based"}, "[8]": {"biological_target": "T1, Toll-like receptor 4 (Mus musculus)", "experiment": "Binding affinity to TLR-4 in C57BL/6 mouse peritoneal exudate macrophages assessed as cells binding to PE conjugated anti-TLR-4 monoclonal antibody at 10 ug/ml preincubated for 4 hrs followed by antibody addition by flow cytometry (reference value: 50.8%)"}, "[9]": {"biological_target": "T1, Toll-like receptor 4 (Mus musculus)", "experiment": "Agonist activity at TLR-4 in C57BL/6 mouse peritoneal exudate macrophages assessed as increase in IL-6 production at 1 to 5 ug/ml measured after 48 hrs by ELISA"}, "[10]": {"biological_target": "T1, Toll-like receptor 4 (Mus musculus)", "experiment": "Agonist activity at TLR-4 in mouse RAW264.7 cells assessed as increase in IL-6 production at 1 to 5 ug/ml measured after 48 hrs by ELISA", "assay_type": "cell-based"}, "[11]": {"biological_target": "T1, Toll-like receptor 4 (Mus musculus)", "experiment": "Agonist activity at TLR-4 in TLR2 deficient C57BL/6 mouse peritoneal exudate macrophages assessed as increase in TNF-alpha production at 1 to 5 ug/ml measured after 2 to 24 hrs by ELISA"}, "[12]": {"experiment": "Effect on adaptive immune system in mouse splenocytes assessed as polyclonal activation of T-lymphocytes", "assay_type": "cell-based", "details": "splenocyte"}, "[13]": {"biological_target": "T1, Toll-like receptor 4 (Mus musculus)", "experiment": "Binding affinity to TLR-4 in C57BL/6 mouse peritoneal exudate macrophages assessed as cells binding to PE conjugated anti-TLR-4 monoclonal antibody at 1 ug/ml preincubated for 4 hrs followed by antibody addition by flow cytometry (reference value: 50.8%)"}, "[14]": {"biological_target": "T1, Toll-like receptor 4 (Mus musculus)", "experiment": "Binding affinity to TLR-4 in C57BL/6 mouse peritoneal exudate macrophages assessed as cells binding to PE conjugated anti-TLR-4 monoclonal antibody at 5 ug/ml preincubated for 4 hrs followed by antibody addition by flow cytometry (reference value: 50.8%)"}, "[15]": {"biological_target": "T1, Toll-like receptor 4 (Mus musculus)", "experiment": "Agonist activity at TLR-4 in C57BL/6 mouse peritoneal exudate macrophages assessed as increase in TNF-alpha production at 1 to 5 ug/ml measured within 2 hrs by ELISA"}},
  "note": "Activity calls are given as the source filed them. The rule behind the calls is not given here.",
  "data": [
    {"smiles": "CCS[C@@H]1O[C@H](COC(C)=O)[C@@H](OC(C)=O)[C@H](OC(C)=O)[C@H]1N1C(=O)c2ccccc2C1=O", "values": [
      {"measurement": "Activity", "setting": "[1]", "value": 50, "unit": "%"}
    ]},
    {"smiles": "COC(=O)C1(C)OC[C@H]2O[C@@H](OC3CCC(O[C@@H]4O[C@H](COC(C)=O)[C@@H](OC(C)=O)[C@H](OC(C)=O)[C@H]4N4C(=O)c5ccccc5C4=O)CC3)[C@H](OC(C)=O)[C@@H](OC(=O)c3ccccc3)[C@H]2O1", "note": "(stereo partly specified)", "values": [
      {"measurement": "Activity", "setting": "[2]", "value": 50, "unit": "%"},
      {"measurement": "Activity", "setting": "[3]", "value": "Non-Toxic"},
      {"measurement": "Activity", "setting": "[4]", "value": 33.4, "unit": "%"},
      {"measurement": "Activity", "setting": "[5]", "value": "Active"},
      {"measurement": "Activity", "setting": "[6]", "value": "Dose-dependent effect"},
      {"measurement": "Activity", "setting": "[7]", "value": "Active"},
      {"measurement": "Activity", "setting": "[8]", "value": 24.3, "unit": "%"},
      {"measurement": "Activity", "setting": "[9]", "value": "Active"},
      {"measurement": "Activity", "setting": "[10]", "value": "Active"},
      {"measurement": "Activity", "setting": "[11]", "value": "Active"},
      {"measurement": "Activity", "setting": "[12]", "value": "Non-Toxic"},
      {"measurement": "Activity", "setting": "[13]", "value": 45.2, "unit": "%"},
      {"measurement": "Activity", "setting": "[14]", "value": 37.3, "unit": "%"},
      {"measurement": "Activity", "setting": "[15]", "value": "Active"}
    ]},
    {"smiles": "COC(=O)C1(C)OC[C@H]2O[C@@H](Sc3ccccc3)[C@H](OC(C)=O)[C@@H](OC(=O)c3ccccc3)[C@H]2O1", "note": "(stereo partly specified)", "values": [
      {"measurement": "Activity", "setting": "[1]", "value": 50, "unit": "%"}
    ]}
  ]
}
